# In ChEMBL document CHEMBL1135161, “Antimalarial activities of ring-substituted bioimidazoles” (Bioorg Med Chem Lett, 2002):
# The source made the active and inactive calls. The rule behind the calls is not given here.
# Columns and labels:
# [1] = system: Mus musculus; assay: In vivo antimalarial activity of compound against Plasmodium berghei infected in mice (Mus musculus) model. Compound active at given dose.; assay type: functional
# [2] = system: Plasmodium falciparum; assay: In vitro antimalarial activity against chloroquine-resistant Plasmodium falciparum; assay type: functional, organism-based
# [3] = system: Plasmodium falciparum; assay: In vitro antimalarial activity against chloroquine-sensitive Plasmodium falciparum; assay type: functional, organism-based
# [4] = system: Mus musculus; assay: In vivo antimalarial activity of compound against Plasmodium berghei infected in mice (Mus musculus) model; Inactive; assay type: functional, organism-based
Compound,IC50 [3],further results
CC(C)c1nc(CCN)c[nH]1,4.7 µM,Dose [1]: 100 mg/kg; IC50 [2]: 4.8 µM
NC(Cc1cnc(C2CCCCC2)n1Cc1ccccc1)C(=O)O (stereo not given),> 500 µM,–
C=CCn1cnc(CCN)c1,176 µM,–
CC(C)(C)c1nc(CC(N)C(=O)O)cn1Cc1ccccc1 (stereo not given),157 µM,–
Cn1cnc(CCN)c1 [N-METHYLHISTAMINE],> 500 µM,–
CC(C)n1cnc(CCN)c1,9.6 µM,Dose [1]: 100 mg/kg; IC50 [2]: 10.4 µM
CC(C)c1nc(CC(N)C(=O)O)cn1C (stereo not given),> 500 µM,–
CC(C)(C)c1nc(CCN)c[nH]1,15.5 µM,DOSE [4]: inactive; IC50 [2]: 30.3 µM
NCCc1c[nH]c(C2CCCCC2)n1,> 500 µM,–
NCCc1cnc(C2CCCCC2)n1Cc1ccccc1,> 500 µM,–
NCCc1cn(Cc2ccccc2)cn1,20.7 µM,DOSE [4]: inactive; IC50 [2]: 22.5 µM
NC(Cc1c[nH]c(C23CC4CC(CC(C4)C2)C3)n1)C(=O)O (stereo not given),450 µM,–
CC(C)(C)c1nc(CC(N)C(=O)O)c[nH]1 (stereo not given),25.8 µM,DOSE [4]: inactive; IC50 [2]: 3.85 µM
CCc1nc(CCN)c[nH]1,> 500 µM,–
CC(C)c1nc(CC(N)C(=O)O)c[nH]1 (stereo not given),6.3 µM,Dose [1]: 100 mg/kg; IC50 [2]: 6.5 µM
NCCc1c[nH]c(C2CCC2)n1,367 µM,–
CC(C)c1nc(CC(N)C(=O)O)cn1Cc1ccccc1 (stereo not given),89 µM,DOSE [4]: inactive; IC50 [2]: 245 µM
Cn1c(CC(N)C(=O)O)cnc1C(C)(C)C (stereo not given),> 500 µM,–
Cc1ncc(CCN)[nH]1 [2-METHYLHISTAMINE],> 500 µM,–
CC(C)c1nc(CCN)cn1C,387 µM,–
NCCc1cnc(C23CC4CC(CC(C4)C2)C3)n1Cc1ccccc1,> 500 µM,–
CCn1cnc(CCN)c1,> 500 µM,–
Cn1cc(CCN)nc1C1CCCCC1,> 500 µM,–
Cn1cc(CCN)nc1C(C)(C)C,459 µM,–
NC(Cc1c[nH]c(C2CCCC2)n1)C(=O)O (stereo not given),276 µM,–
NCCc1c[nH]c(C2CCCC2)n1,489 µM,–
CC(C)n1cnc(CC(N)C(=O)O)c1 (stereo not given),120 µM,–
NC(Cc1cnc(C23CC4CC(CC(C4)C2)C3)n1Cc1ccccc1)C(=O)O (stereo not given),> 500 µM,–

# Second part, led by results:
IC50 [3],Compound,further results
350 µM,NC(Cc1c[nH]c(C2CCCCC2)n1)C(=O)O (stereo not given),–
> 500 µM,Cc1nc(CC(N)C(=O)O)c[nH]1 (stereo not given),–
> 500 µM,Cn1cnc(CC(N)C(=O)O)c1 (stereo not given),–
> 500 µM,Cn1cc(CC(N)C(=O)O)nc1C1CCCCC1 (stereo not given),–
> 500 µM,CCn1cnc(CC(N)C(=O)O)c1 (stereo not given),–
188 µM,CC(C)c1ncc(CCN)n1Cc1ccccc1,–
399 µM,CC(C)(C)c1ncc(CC(N)C(=O)O)n1Cc1ccccc1 (stereo not given),–
255 µM,NC(Cc1c[nH]c(C2CCC2)n1)C(=O)O (stereo not given),–
355 µM,CC(C)c1ncc(CC(N)C(=O)O)n1Cc1ccccc1 (stereo not given),–
> 500 µM,Cn1cc(CC(N)C(=O)O)nc1C(C)(C)C (stereo not given),–
> 500 µM,CCc1nc(CC(N)C(=O)O)c[nH]1 (stereo not given),–
360 µM,NC(Cc1cn(Cc2ccccc2)cn1)C(=O)O (stereo not given),–
233 µM,CC(C)(C)c1ncc(CCN)n1Cc1ccccc1,–
